Assay results reported in patent publication US20090220554A1, “Transglutaminase Inhibitors and Methods of Use Thereof” (priority 2005, published 2009).

What was measured:
[1] = biological target: T1, recombinant human tissue transglutaminase 2 (TG2) (Homo sapiens, UniProt P21980); assay: TG2 deamidation assay (GDH-coupled fluorescent NADH assay, Z-Gln-Gly substrate); type: biochemical; conditions: fluorescent NADH-based deamidation assay; from log(concentration)-response relationships; read-out: IC50 for inhibition of TG2
T1 construct: 6xHis; made in house; host or cells: E. coli BL21
T1 sequence (P21980 1-687): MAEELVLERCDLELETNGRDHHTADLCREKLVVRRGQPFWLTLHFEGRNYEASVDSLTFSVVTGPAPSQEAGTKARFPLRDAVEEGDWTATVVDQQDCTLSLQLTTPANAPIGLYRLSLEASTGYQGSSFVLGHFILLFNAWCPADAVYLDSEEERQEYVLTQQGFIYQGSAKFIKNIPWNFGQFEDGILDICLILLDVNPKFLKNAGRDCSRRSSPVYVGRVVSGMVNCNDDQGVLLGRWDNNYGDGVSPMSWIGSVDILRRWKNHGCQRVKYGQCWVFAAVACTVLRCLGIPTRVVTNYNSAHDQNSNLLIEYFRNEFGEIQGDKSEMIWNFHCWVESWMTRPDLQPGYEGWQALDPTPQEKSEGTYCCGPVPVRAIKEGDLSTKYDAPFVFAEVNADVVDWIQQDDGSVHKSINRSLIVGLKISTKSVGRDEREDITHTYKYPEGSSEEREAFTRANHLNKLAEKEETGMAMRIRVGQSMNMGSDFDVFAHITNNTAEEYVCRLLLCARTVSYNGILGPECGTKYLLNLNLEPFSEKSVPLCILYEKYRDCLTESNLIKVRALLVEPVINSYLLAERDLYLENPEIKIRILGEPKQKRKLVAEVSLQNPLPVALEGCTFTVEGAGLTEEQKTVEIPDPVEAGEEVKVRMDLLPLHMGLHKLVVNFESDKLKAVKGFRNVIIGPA
Experimental: The illustrative compounds of the invention described above were tested in a TG2 assay with recombinant human tissue transglutaminase, as described in the Examples. […] It should be noted that, although […] inhibition is observed upon addition of these compounds, this observation may result from the ability of some inhibitors to bind to the GTP binding site of TG2. […] Thus, it follows that pharmacologically useful inhibitors of TG2 could be identified based on their ability to bind to either the enzyme active site or the GTP binding site. Purification of recombinant human TG2. […] The enzyme was isolated from cell lysates using nickel affinity chromatography. Following a buffer exchange, TG2 was purified further by ion-exchange (HiTrap-Q) chromatography using an Akta-FPLC system (Amersham Biosciences). […] Assays of tissue transglutaminase activity. The transamidation activity of TG2 was measured as described by Slaughter, et al. Anal Biochem, 1992. 205(1): p. 166-71. Briefly, 96-well Maxisorp plates (Nunc, Inc.) were coated with […] N′—N′-dimethylated casein overnight at 4° C. […] The deamidation activity of TG2 was measured essentially as described previously (Piper, et al. Biochemistry, 2002. 41(1): p. 386-93). […] TG2-catalyzed production of ammonium ions was monitored through the coupled oxidation of NADH by GDH. NADH levels were monitored by fluorescence (excitation: 341 nm; emission 451 nm) and were standardized with known amounts of NADH. During enzymatic reactions, NADH levels were monitored kinetically using a Fluoroskan II (Labsystems, Inc.) 96-well plate reader and a lag time of four minutes. These values were determined through analysis of the log(concentration)-response relationships.

[2] = biological target: T1, recombinant human tissue transglutaminase 2 (TG2); assay: TG2 transamidation assay (5-(biotinamido)pentylamine incorporation into dimethylated casein); type: biochemical
Excerpt: Purification of recombinant human TG2. TG2 was purified from eight 1 L cultures of the BL21 strain of E. coli expressing a plasmid encoding recombinant, 6×-His tagged human tissue transglutaminase 2 (TG2). The enzyme was isolated from cell lysates using nickel affinity chromatography. Following a buffer exchange, TG2 was purified further by ion-exchange (HiTrap-Q) chromatography using an Akta-FPLC system (Amersham Biosciences). Fractions containing purified TG2 were pooled, exchanged into low salt buffer (20 mM Tris-Cl, 1 mM EDTA, 1 mM DTT, pH 7.2), supplemented with 10% glycerol, flash frozen in 100 μL aliquots and stored at −80° C.
Assays of tissue transglutaminase activity. The transamidation activity of TG2 was measured as described by Slaughter, et al. Anal Biochem, 1992. […] 5-BP incorporated by TG2 was visualized by binding of a streptavidin-alkaline phosphatase conjugate (Sigma) and kinetic measurement of the dephosphorylation of pNPP was monitored at 410 nm using a ThermoMax microplate reader (Molecular Devices). The deamidation activity of TG2 was measured essentially as described previously (Piper, et al. Biochemistry, 2002. 41(1): p. 386-93). […] TG2-catalyzed production of ammonium ions was monitored through the coupled oxidation of NADH by GDH. NADH levels were monitored by fluorescence (excitation: 341 nm; emission 451 nm) and were standardized with known amounts of NADH. […]

neurologic cancer = conditions: at concentrations of 12.5-50 mg/kg; cited from earlier work

SMILES | IC50 [1] [µM] | further results
O=C1C(=O)N(C(=O)NC2CCCCC2)c2ccc(Br)cc21 [CSRF-20, 5-bromo-2,3-dioxo-2,3-dihydro-indole-1-carboxylic acid cyclohexylamide] | 110 | –
CCN1C(=O)c2cccc3c(NC(=O)CSc4ccc5ccccc5n4)ccc1c23 [CSRF-17] | 200 | –
O=C1Nc2ccc(Oc3ccc4c(c3)C(=O)C(=O)N4)cc2C1=O [CSRF-18, di-(1H-indole-2,3-dione-5-yl)-ether] | 23 | –
CC1=CC(C)(C)N2C(=O)C(=O)c3cc(OC(=O)C4CCCO4)cc1c32 (stereo not shown) [CSRF-24, tetrahydrofuran-2-carboxylic acid 4,4,6-trimethyl-1,2-dioxo-1,2-dihydro-4H-pyrrolo[3,2,1-ij]quinolin-8-yl ester] | 450 | –
O=C1Nc2ccc(Cc3ccc4c(c3)C(=O)C(=O)N4)cc2C1=O [CSRF-14, 1,1-di-(1H-indole-2,3-dione-5-yl)-methane] | 16 | –
O=C(NNC(=O)C1=NOC(CNc2ncc(C(F)(F)F)cc2Cl)C1)Nc1ccc(Cl)cc1 (stereo not shown) [CSRF-13, 1-(4-chloro-phenyl)-3-(2-{5-[3-chloro-5-trifluoromethyl-pyridin-2-ylamino)-methyl]-4,5-dihydro-isoxazol-3-yl}-carboxamido-N-urea] | 250 | –
O=C1NC(=O)N(c2cccc(Cl)c2)C(=O)/C1=N/c1ccc(Cl)c(CN2C(=O)c3ccccc3C2=O)c1 [CSRF-21, 5-[4-Chloro-3-(1,3-dioxo-1,3-dihydro-isoindol-2-ylmethyl)-phenylimino]-1-(3-chloro-phenyl)-pyrimidine-2,4,6-trione] | – | IC50 [2]: 10 µM
Cc1ccc2c(c1)C(=O)C(=O)N2CC(=O)Nc1ccc(S(=O)(=O)NCC2CCCO2)cc1 (stereo not shown) [CSRF-8] | 150 | –
O=C(CN1C(=O)C(=O)c2cc(Br)ccc21)NCC1CC1 [CSRF-7, 2-(5-bromo-2,3-dioxo-2,3-dihydro-indol-1-yl)-N-cyclopropylmethyl-acetamide] | 30 | –
O=C(N[C@@H](Cc1ccc(O)cc1)C(=O)NCC1CC(Br)=NO1)OCc1ccccc1 (stereo partly shown) [KCC009] | – | activity in a mouse model for neurologic cancer (neurologic cancer): active
O=C(CN1C(=O)C(=O)c2ccccc21)Nc1ccc(N2CCN(C(=O)c3cccs3)CC2)cc1 [CSRF-6, 2-(2,3-dioxo-2,3-dihydro-indol-1-yl)-N-{4-[4-(thiophene-2-carbonyl)-piperazin-1-yl]-phenyl}-acetamide] | 17 | –
O=C(CSc1nnc2c(n1)[nH]c1ccc(F)cc12)OC1CCCCC1 [CSRF-2, (6-fluoro-9H-1,3,4,9-tetraaza-fluoren-2-ylsulfanyl)-acetic acid cyclohexyl ester] | 36 | –
Cc1cccc(NC(=S)N(Cc2cc3ccc(C)c(C)c3[nH]c2=O)CC2CCCO2)c1 (stereo not shown) [CSRF-3, 1-(7,8-dimethyl-2-oxo-1,2-dihydro-quinolin-3-ylmethyl)-1-(tetrahydrofuran-2-ylmethyl)-3-m-tolyl-thiourea] | 30 | –
